This note sets out measurements from patent US9416111B2, “Substituted diazine and triazine spleen tyrosine kinease (Syk) inhibitors” (Merck Sharp & Dohme Corp., priority 2012, dated 2016).

Where “and” joins values, the source holds several entries; their conditions need not be identical. Equal values may be shown once.

For the first assay, the target named is T1, recombinant human GST-SYK (Homo sapiens, UniProt P43405).
T1 construct: purchased Carna Biosciences 08-176
In words: Homogeneous Time-Resolved Fluorescence (HTRF) assay for the recombinant human Syk enzyme. It is filed as biochemical. Particulars: GST-hSYK 5 pM, ATP 25 μM, IC50 rated in classes, read-out: rhSYK Activity. The procedure, abridged:
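GST-hSYK (5 pM) was preincubated 10 min with inhibitor in 15 mM Tris-HCl pH 7.5, 0.01% tween 20, 2 mM DTT; reaction started with 250 nM biotinylated peptide, 5 mM Mg and 25 μM ATP, run 45 min at room temperature. Phosphopeptide detected by HTRF (Eu-anti-phosphotyrosine/SA-APC) after EDTA quench.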
For orientation: In TR-FRET formats the signal depends on donor and acceptor labels being close together.
As for `CCOC(=O)CCc1cc(-c2cccc(Nc3nccc(C(F)(F)F)n3)c2)ncn1` [Example 3.44, ethyl 3-[6-(3-{[4-(trifluoromethyl)pyrimidin-2-yl]amino}phenyl)pyrimidin-4-yl]propanoate], the IC50 was in the range of 1000 to 10000 nM. Consider `Cc1cc(Nc2nccc(C(F)(F)F)n2)cc(-c2cnc(NC(C)(C)C(=O)O)nc2)c1` [Example 2.2, 2-methyl-N-[5-(3-methyl-5-{[4-(trifluoromethyl)pyrimidin-2-yl]amino}phenyl)pyrimidin-2-yl]alanine], for which the IC50 is below 100 nM. On to `Cc1cc(Nc2nccc(C(F)(F)F)n2)cc(-c2cnc(N3CCS(=O)(=O)CC3)nc2)c1` [Example 2.20, N-{3-[2-(1,1-dioxidothiomorpholin-4-yl)pyrimidin-5-yl]-5-methylphenyl}-4-(trifluoromethyl)pyrimidin-2-amine], for which the IC50 is below 100 nM. On the same count and under the same terms, the result for `Cc1cc(Nc2nccc(C(F)(F)F)n2)cc(-c2cnc(NCC(=O)O)nc2)c1` [Example 2.12, N-[5-(3-methyl-5-{[4-(trifluoromethyl)pyrimidin-2-yl]amino}phenyl)pyrimidin-2-yl]glycine] reads below 100 nM; that for `Cc1cc(Nc2nccc(C(F)(F)F)n2)cc(-c2cnc(NCC3CCC(=O)N3)nc2)c1` (centres unmarked) [Example 2.22, 5-({[5-(3-methyl-5-{[4-(trifluoromethyl)pyrimidin-2-yl]amino}phenyl)pyrimidin-2-yl]amino}methyl)pyrrolidin-2-one], below 100 nM. For `Cc1cc(Nc2nccc(C(F)(F)F)n2)cc(-c2cnc(OC3CCC(C(=O)O)CC3)nc2)c1` (centres unmarked) [Example 3.60, 4-{[5-(3-methyl-5-{[4-(trifluoromethyl)pyrimidin-2-yl]amino}phenyl)pyrimidin-2-yl]oxy}cyclohexanecarboxylic acid], the IC50 was below 100 nM. Consider `Cc1cc(Nc2nccc(C(F)F)n2)cc(-c2cnc(C[C@H]3CC[C@H](C(=O)O)CC3)nc2)c1` [Example 5.1, trans-4-{[5-(3-{[4-(difluoromethyl)pyrimidin-2-yl]amino}-5-methylphenyl)pyrimidin-2-yl]methyl}cyclohexanecarboxylic acid], for which the IC50 was below 100 nM. Same read-out and setting: then `Cc1cc(Nc2nccc(C(F)(F)F)n2)cc(-c2cnc(N3CCOC(CCO)C3)nc2)c1` (centres unmarked) [Example 2.23, 2-{4-[5-(3-methyl-5-{[4-(trifluoromethyl)pyrimidin-2-yl]amino}phenyl)pyrimidin-2-yl]morpholin-2-yl}ethanol], with 100 to 1000 nM; and `O=C(O)CCc1cncc(-c2cccc(Nc3nccc(C(F)(F)F)n3)c2)n1` [Example 3.14, 3-[6-(3-{[4-(trifluoromethyl)pyrimidin-2-yl]amino}phenyl)pyrazin-2-yl]propanoic acid], with 100 to 1000 nM; and `Cc1cc(Nc2nccc(C(F)(F)F)n2)cc(-c2cnc(N(C)CCC3OCCO3)nc2)c1` [Example 2.45, N-[2-(1,3-dioxolan-2-yl)ethyl]-N-methyl-5-(3-methyl-5-{[4-(trifluoromethyl)pyrimidin-2-yl]amino}phenyl)pyrimidin-2-amine], with below 100 nM. On the same count and under the same terms, then `Cc1cc(Nc2nccc(C(F)F)n2)cc(-c2cnc([C@@H](C)[C@H]3CC[C@H](C(=O)O)CC3)nc2)c1` (single isomer, unassigned) [Example 6.1, trans-4-{1-[5-(3-{[4-(difluoromethyl)pyrimidin-2-yl]amino}-5-methylphenyl)pyrimidin-2-yl]ethyl}cyclohexanecarboxylic acid], with below 100 nM; and `Cc1cc(Nc2nccc(C)n2)cc(-c2cnc(CCC(=O)O)nc2)c1` [Example 3.61, 3-(5-{3-methyl-5-[(4-methylpyrimidin-2-yl)amino]phenyl}pyrimidin-2-yl)propanoic acid], with 100 to 1000 nM and < 100 nM; and `CCC1C(=O)NCCN1c1ncc(-c2cc(C)cc(Nc3nccc(C(F)(F)F)n3)c2)cn1` (centres unmarked) [Example 2.51, 3-ethyl-4-[5-(3-methyl-5-{[4-(trifluoromethyl)pyrimidin-2-yl]amino}phenyl)pyrimidin-2-yl]piperazin-2-one], with below 100 nM. Still for that read-out and setting: the result for `Cc1cc(Nc2nccc(C(F)(F)F)n2)cc(-c2cnc(OC3CCC(C(=O)O)CC3)nc2)c1` (centres unmarked) [Example 3.59, 4-{[5-(3-methyl-5-{[4-(trifluoromethyl)pyrimidin-2-yl]amino}phenyl)pyrimidin-2-yl]oxy}cyclohexanecarboxylic acid] reads below 100 nM. Turning to `Cc1cc(Nc2nccc(C(F)(F)F)n2)cc(-c2cnc(NC3CCNC3=O)nc2)c1` (centres unmarked) [Example 2.7, 3-{[5-(3-methyl-5-{[4-(trifluoromethyl)pyrimidin-2-yl]amino}phenyl)pyrimidin-2-yl]amino}pyrrolidin-2-one], the IC50 is below 100 nM. Consider `Cc1cc(Nc2nccc(C(F)(F)F)n2)cc(-c2cnc(N3CC[C@H]3C(=O)O)nc2)c1` [Example 2.6, (2S)-l-[5-(3-methyl-5-{[4-(trifluoromethyl)pyrimidin-2-yl]amino}phenyl)pyrimidin-2-yl]azetidine-2-carboxylic acid], for which the IC50 was below 100 nM. The same measure, in the same setting: the result for `Cc1cc(Nc2nccc(C(F)(F)F)n2)cc(-c2cnc(N(C)C(=O)CC#N)nc2)c1` [Example 2.80, 2-cyano-N-methyl-N-[5-(3-methyl-5-{[4-(trifluoromethyl)pyrimidin-2-yl]amino}phenyl)pyrimidin-2-yl]acetamide] reads below 100 nM; that for `Cc1cc(Nc2nccc(C(F)(F)F)n2)cc(-c2cnc(N3CCCC(O)C3)nc2)c1` (centres unmarked) [Example 2.75, 1-[5-(3-methyl-5-{[4-(trifluoromethyl)pyrimidin-2-yl]amino}phenyl)pyrimidin-2-yl]piperidin-3-ol], below 100 nM; that for `CCOC(=O)CCc1cc(-c2cc(C)cc(Nc3nccc(C4CC4)n3)c2)ncn1` [Example 3.53, ethyl 3-(6-{3-[(4-cyclopropylpyrimidin-2-yl)amino]-5-methylphenyl}pyrimidin-4-yl)propanoate], 100 to 1000 nM. Consider `Cc1cc(Nc2nccc(C(F)F)n2)cc(-c2cnc([C@H](C)[C@H]3CC[C@H](C(=O)O)[C@H](C)C3)nc2)c1` (single isomer, unassigned) [Example 7.3], for which the IC50 was below 100 nM. The same measure, in the same setting: then `CCCN1CCCN(c2ncc(-c3cc(C)cc(Nc4nccc(C(F)(F)F)n4)c3)cn2)CC1` [Example 2.68, N-{3-methyl-5-[2-(4-propyl-1,4-diazepan-1-yl)pyrimidin-5-yl]phenyl}-4-(trifluoromethyl)pyrimidin-2-amine], with below 100 nM; and `Cc1cc(Nc2nccc(C(F)(F)F)n2)cc(-c2cnc(NCCC(=O)O)nc2)c1` [Example 2.8, N-[5-(3-methyl-5-{[4-(trifluoromethyl)pyrimidin-2-yl]amino}phenyl)pyrimidin-2-yl]-beta-alanine], with below 100 nM. The same measure, in the same setting: the result for `Cc1cc(Nc2nccc(C(F)(F)F)n2)cc(-c2ncccn2)c1` [Example 3.23, N-(3-methyl-5-pyrimidin-2-ylphenyl)-4-(trifluoromethyl)pyrimidin-2-amine] reads 100 to 1000 nM. Turning to `CCC(CO)Nc1ncc(-c2cc(C)cc(Nc3nccc(C(F)(F)F)n3)c2)cn1` (centres unmarked) [Example 2.59, 2-{[5-(3-methyl-5-{[4-(trifluoromethyl)pyrimidin-2-yl]amino}phenyl)pyrimidin-2-yl]amino}butan-1-ol], the IC50 is below 100 nM. On the same count and under the same terms, then `Cc1cc(Nc2nccc(C(F)(F)F)n2)cc(-c2ccnnc2)c1` [Example 3.43, N-(3-methyl-5-pyridazin-4-ylphenyl)-4-(trifluoromethyl)pyrimidin-2-amine], with 100 to 1000 nM; and `CNC(=O)C1CCCN1c1ncc(-c2cc(C)cc(Nc3nccc(C(F)(F)F)n3)c2)cn1` (racemic) [Example 2.70, N-methyl-1-[5-(3-methyl-5-{[4-(trifluoromethyl)pyrimidin-2-yl]amino}phenyl)pyrimidin-2-yl]prolinamide], with below 100 nM; and `O=C(O)CCc1cc(-c2cccc(Nc3nccc(C(F)(F)F)n3)c2)ncn1` [Example 3.45, 3-[6-(3-{[4-(trifluoromethyl)pyrimidin-2-yl]amino}phenyl)pyrimidin-4-yl]propanoic acid], with 100 to 1000 nM. Same read-out and setting: then `Cc1cc(Nc2nccc(C)n2)cc(-c2cnc(CCC(=O)O)cn2)c1` [Example 3.10, 3-(5-{3-methyl-5-[(4-methylpyrimidin-2-yl)amino]phenyl}pyrazin-2-yl)propanoic acid], with 100 to 1000 nM; and `Cc1cc(Nc2nccc(C(F)(F)F)n2)cc(-c2cccnn2)c1` [Example 3.28, N-(3-methyl-5-pyridazin-3-ylphenyl)-4-(trifluoromethyl)pyrimidin-2-amine], with 100 to 1000 nM; and `Cc1cc(Nc2nccc(C(F)(F)F)n2)cc(-c2cc(CCC(=O)O)ncn2)c1` [Example 3.50, 3-[6-(3-methyl-5-{[4-(trifluoromethyl)pyrimidin-2-yl]amino}phenyl)pyrimidin-4-yl]propanoic acid], with 100 to 1000 nM.

For `Cc1cc(Nc2nccc(C(F)(F)F)n2)cc(-c2ccc(-c3cccc(C(=O)O)c3)nn2)c1` [Example 3.32, 3-[6-(3-methyl-5-{[4-(trifluoromethyl)pyrimidin-2-yl]amino}phenyl)pyridazin-3-yl]benzoic acid], the IC50 was below 100 nM. On the same count and under the same terms, then `Cc1cc(Nc2nccc(C(F)(F)F)n2)cc(-c2cnc(N3CCN(CC(F)(F)F)CC3)nc2)c1` [Example 2.65, N-(3-methyl-5-{2-[4-(2,2,2-trifluoroethyl)piperazin-1-yl]pyrimidin-5-yl}phenyl)-4-(trifluoromethyl)pyrimidin-2-amine], with 100 to 1000 nM. On the same count and under the same terms, the result for `Cc1cc(Nc2nccc(C(F)(F)F)n2)cc(-c2ccncn2)c1` [Example 3.48, N-(3-methyl-5-pyrimidin-4-ylphenyl)-4-(trifluoromethyl)pyrimidin-2-amine] reads 100 to 1000 nM.

The assay is the same for the next values; noted with them: GST-hSYK 5 pM, ATP 25 μM, values in text, read-out: IC50.
In the case of `Cc1cc(Nc2nccc(C(F)F)n2)cc(-c2cnc(C[C@H]3CC[C@H](C(=O)O)CC3)nc2)c1` [Example 5.1, trans-4-{[5-(3-{[4-(difluoromethyl)pyrimidin-2-yl]amino}-5-methylphenyl)pyrimidin-2-yl]methyl}cyclohexanecarboxylic acid], the IC50 is 2.9 nM. With `Cc1cc(Nc2nccc(C(F)F)n2)cc(-c2cnc([C@@H](C)[C@H]3CC[C@H](C(=O)O)CC3)nc2)c1` (single isomer, unassigned) [Example 6.1, trans-4-{1-[5-(3-{[4-(difluoromethyl)pyrimidin-2-yl]amino}-5-methylphenyl)pyrimidin-2-yl]ethyl}cyclohexanecarboxylic acid], the IC50 is 0.6 nM.
